Literature values as cited in patent US20040076682A1, “Novel ophthalmic compositions” (priority 2001, published 2004).
In brackets after ≈: the same amount, converted by molar mass.

System: Streptococcus sp
Details: Streptococcus sp clinical isolate of ocular infections

MIC80: 12.5 µg/mL (≈ 39.1 µM)
SMILES: CCn1cc(C(=O)O)c(=O)c2cc(F)c(N3CCNCC3)cc21 [norfloxacin]
